Experimental data from publication PMC8819286 (Cancer Science, 2021).
pIC50: −log10 of the molar value. Like-named read-outs stand apart in the source and are kept apart here.

Assays:
[1] = tested on: BaF3‐EGFR^19del/T790M/C797S cells; assay: Apoptosis, Annexin V‐FITC/PI flow cytometry; format: cell-based; settings: concentrations between 30 nmol/L and 300 nmol/L, 48 h
PC‐9‐OR cells = assay: Apoptosis, Annexin V‐FITC/PI flow cytometry; format: cell-based; settings: concentrations between 30 nmol/L and 300 nmol/L, 48 h
PC‐9 (EGFR^19del) cells = assay: Proliferation assay; format: cell-based; settings: Homo sapiens, PC-9, 72 h, read-out: IC50, antiproliferative, PC‐9 cells
[2] = tested on: PC‐9‐OR cells (EGFR^19del/T790M/C797S); assay: Proliferation assay; format: cell-based; settings: PC9-OR, 72 h, read-out: IC50, antiproliferative, PC‐9‐OR cells
[3] = tested on: BaF3‐EGFR^19del/T790M cells; assay: Proliferation assay; format: cell-based; settings: 72 h, read-out: IC50, antiproliferative, BaF3‐EGFR^19del/T790M
EGFR^T790M patients = settings: cited from earlier work
[4] = tested on: BaF3‐EGFR^19del/T790M/C797S cells; assay: Proliferation assay; format: cell-based; settings: 72 h, read-out: IC50, antiproliferative, BaF3‐EGFR^19del/T790M/C797S
[5] = tested on: EGFR^19del/T790M/C797S–triple‐mutant cells; settings: cited from earlier work

With `C=CC(=O)Nc1cc(Nc2nccc(-c3cn(C)c4ccccc34)n2)c(OC)cc1N(C)CCN(C)C` [Osimertinib] the “apoptosis (in words)” value [1] was “hardly caused any significant apoptosis”, the “apoptosis (in words)” value (PC‐9‐OR cells) was “hardly caused any significant apoptosis” and the pIC50 (PC‐9 (EGFR^19del) cells) was 7.10. The pIC50 [2] was 5.31, the pIC50 [3] was 7.40 and the response rate (EGFR^T790M patients) was 61%. The pIC50 [4] was 5.47.
In the case of `O=C(Nc1nccs1)C(c1cc(F)ccc1O)N1Cc2ccccc2C1=O` (stereo not shown) [EAI045], the “effectiveness against EGFR^19del/T790M/C797S–triple‐mutant cells” value (“effectiveness” for short) [5] is listed as “not effective”.
For `COc1cc(N2CCC(N3CCN(C)CC3)CC2)ccc1Nc1ncc(Cl)c(Nc2ccccc2P(C)(C)=O)n1` [Brigatinib], the “effectiveness” value ([5]; in vitro and in vivo) is listed as “effective”.
For `O=C(Nc1nccs1)C(c1cc(F)ccc1O)N1Cc2ccc(-c3ccc(N4CCNCC4)cc3)cc2C1=O` (stereo not shown) [JBJ‐04‐125‐02], the “effectiveness” value [5] is given as “not effective”.
